{"source": "patent US20140088144A1", "about": "“INHIBITING MICROBIAL INFECTIONS” (THE UNIVERSITY OF KANSAS, priority 2012, published 2014)", "key": {"[1]": {"target": "RhaS (Escherichia coli, UniProt P09377)", "sequence (P09377 whole entry, the tested form may be a part)": "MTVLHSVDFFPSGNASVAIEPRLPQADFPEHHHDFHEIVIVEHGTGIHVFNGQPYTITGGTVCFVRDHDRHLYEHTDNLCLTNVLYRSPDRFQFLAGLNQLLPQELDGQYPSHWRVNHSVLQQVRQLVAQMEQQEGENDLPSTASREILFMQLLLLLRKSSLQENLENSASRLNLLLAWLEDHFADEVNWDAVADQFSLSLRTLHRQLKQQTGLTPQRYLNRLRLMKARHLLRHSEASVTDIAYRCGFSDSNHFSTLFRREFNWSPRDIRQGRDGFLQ", "assay": "In vivo dose-response, RhaS-activated rhaB-lacZ reporter fusion (β-galactosidase)", "type": "cell-based, E. coli", "conditions": "full-length RhaS", "source_text": "For dose-response studies, a rhaB-lacZ reporter strain was designed that allowed IPTG induction of RhaS or RhaS(163-278) expression from pHG165 (and thus rhaB-lacZ expression). The strain was constructed by introducing malP::lacIq into SME3000 via phage P1vir-mediated generalized transduction. First, SME3000 was transduced with Δcrp-3 zhc-511::Tn10 from SME1403, selecting for tetracycline resistance and screening for sorbitol deficiency (indicating Δcrp) using MacConkey sorbitol. SME3000 Acrp-3 zhc-511::Tn10 was transduced with crp^+ malP::lacI^q from SG22166, selecting for growth on minimal sorbitol and screening for maltose deficiency (indicating malP::lacI^q) using MacConkey maltose. Finally, SME3000 malP::lacI^q zhc-511::Tn10 was transduced with recA::cat from SME1048 by selecting for chloramphenicol resistance, to make strain SME3632.\nThe top hit identified in the screen was 1-ethyl-4-(nitromethyl)-3-quinolin-2-yl-4H-quinoline, Compound 2. The closely related compound, Compound 1,1-butyl-4-(nitromethyl)-3-quinolin-2-yl-4H-quinoline, was obtained from eMolecules, Inc. (Solana Beach, Calif.; catalog #3761-0013) or Princeton BioMolecular Research (Princeton, N.J.; catalog #OSSL—051168), with the Princeton named used here. […] Lysis/ONPG buffer (50 μL, as in Primary Screen) was added to each well and the plate was immediately placed into a PowerWave XS plate reader (BioTek Instruments, Inc., Winooski, Vt.), set to read the OD420 of each well every 15 min for 4 hr. […] Due to differences in kinetics of lacZ reporter expression, the rhaB-lacZ strains were analyzed at 4 hours and the hts-lacZ strain was analyzed at 1 hr. Percent activity was calculated for each condition as described above, using the single time point with appropriate OD420 levels for each strain. […] IC50 and maximal inhibition values were calculated using the XLfit add-in for Microsoft Excel (ID Business Solutions, Guildford, UK), and graphs were drawn using Prism (GraphPad, La Jolla, Calif.)."}, "[2]": {"tested_on": "E. coli strains used for in vivo assays", "assay": "E. coli growth curves", "type": "cell-based", "conditions": "for impact on growth of the cells: minimal medium", "experimental": "Strains SME3634 and SME3359 were grown overnight (˜16 hr) at 37° C. in MOPS-buffered minimal medium. Overnight grown cultures were diluted into the same medium plus rhamnose to an O.D600 of 0.1, and IPTG was added. 1 mL aliquots of the cultures were added to wells of a 24-well plate, with the addition of either 44 μM Compound 1 (dissolved in 100% DMSO) or an equal volume of 100% DMSO. Growth was monitored at 20 min intervals for approximately 8 hr. at 37° C. with continuous shaking in a PowerWave XS plate reader (BioTek Instruments, Inc., Winooski, Vt.). Error bars represent the standard error of the mean.\nTo test the impact of SE-1 on growth of the bacterial strains used for in vivo dose-response assays (SME4382 and SME3359), we compared growth rates in the presence and absence of SE-1, without addition of rhamnose. Briefly, the cells were grown at 37° C. with shaking in MOPS-buffered minimal medium with glycerol and plus 6.5 mM IPTG, in 24-well plates, with or without: SE-1 (44 uM SE-1, 0.3% DMSO), or DMSO (0.3%) in a PowerWave XS plate reader equipped with KC^4 data analysis software (BioTek Instruments)."}, "[3]": {"tested_on": "Shigella invasion of L-929 cells", "assay": "Shigella invasion assay (gentamycin protection) in L-929 cells", "type": "cell-based, S. flexneri", "conditions": "for invasion decrease relative to no inhibitor: Shigella pre-grown with SE-1", "experimental": "S. flexneri ipgD^− (SME4331) and mxiH^− (SB116) mutant strains were grown overnight at 30° C. and then diluted to an OD600 of ˜0.1 into TSB plus ampicillin. SE-1 (in DMSO) was added to the cultures at final concentrations of 0, 20, or 40 μM SE-1 and 0.3% DMSO. These cultures and SB116 (no SE-1) were grown at 37° C. in 24-well plates (each with 1.2 ml), in the temperature-controlled chamber of a PowerWave XS plate reader (BioTek Instruments). Bacterial growth was continued at 37° C. with shaking and OD600 monitored every 15 min. A separate sample of SME4331 was grown at 30° C. L-929 cells (mouse fibroblasts, used previously for Shigella invasion assays) that had been grown overnight to ˜90% confluency in 24-well plates were washed 3 times with 1 ml of RPMI each (without FBS or antibiotics), and the final wash was removed by aspiration. (All L-929 incubation steps were carried out at 37° C. in a 5% CO2 humidified atmosphere.) When the OD600 of the bacterial cultures reached 1.0 (˜2.5 h), samples were diluted 100-fold in pre-warmed RPMI (without FBS or antibiotics) and then 300 μl was added to each monolayer of L-929 cells, for a multiplicity of infection of roughly 20. In a control sample, 40 μM SE-1 and bacteria grown at 37° C. without SE-1 were added at the same time to L-929 cells. The 24-well plate was centrifuged (2000×g) for 5 min at room temperature to initiate bacterial-host cell contact, incubated for 45 min at 37° C., washed three times with 1 ml RPMI containing 50 μg/ml gentamycin (or without gentamycin for the control), and incubated at 37° C. for 2 h. Cells were again washed three times with 1 ml RPMI and then lysed in 100 μl of PBS (Mediatech) containing 0.1% triton X-100 (Promega, Madison, Wis.) for 10 min at room temperature. The 100 μl lysates from the gentamycin treated and untreated L-929 cells were mixed with 400 μl TSB, and 100 μl of 1:50 and 1:250 further dilutions were plated onto TSB agar containing ampicillin. Plates were incubated overnight at 37° C. and colonies were counted. The number of colonies obtained from gentamycin treated samples was divided by the number of colonies from control samples without gentamycin and multiplied by 100 to calculate the invasion index."}}}
{"molecule": "CCCCN1C=C(c2ccc3ccccc3n2)C(C[N+](=O)[O-])c2ccccc21", "note": "(stereo not drawn) [Compound 1, 1-butyl-4-(nitromethyl)-3-quinolin-2-yl-4H-quinoline]", "values": [{"measurement": "inhibition of the RhaS-activated fusion", "setting": "[1]; rhaB-lacZ", "value": "fully inhibit expression"}, {"measurement": "IC50", "setting": "[1]; rhaB-lacZ (SME3634), read-out: IC50, expression of the RhaS-activated fusion", "value": "~30", "unit": "µM"}, {"measurement": "effect on growth of either strain", "setting": "[2]; 44 uM, SME4382 and SME3359, 8 h at 37° C.", "value": "no detectable effect"}, {"measurement": "impact on growth of the cells", "setting": "[2]; 44 μM, strains with RhaS-activated and LacI-repressed fusions (SME3634, SME3359)", "value": "no impact"}, {"measurement": "impact on growth of the cells", "setting": "[2]; strains with VirF/Rns-activated and LacI-repressed reporter fusions", "value": "no impact"}, {"measurement": "invasion decrease relative to no inhibitor", "setting": "[3]; 20 μM", "value": 1.7, "unit": "fold"}, {"measurement": "invasion when SE-1 and Shigella added at the same time to L-929 cells", "setting": "[3]; 40 μM SE-1, Shigella grown at 37° C. without inhibitor", "value": "invaded to the same extent"}, {"measurement": "invasion decrease relative to no inhibitor", "setting": "[3]; 40 μM", "value": 3, "unit": "fold"}, {"measurement": "inhibition at 40 µM", "setting": "[3]; Shigella, L929, read-out: maximum inhibition of invasion", "value": 70, "unit": "%"}]}
